Measurements taken from ChEMBL document CHEMBL3232730, “Design, synthesis and bioevaluation of N-trisubstituted pyrimidine derivatives as potent aurora A kinase inhibitors” (Eur J Med Chem, 2014).

How the values were obtained:
[1] = biological target: T1, Aurora kinase A (Homo sapiens, UniProt O14965); assay: Inhibition of Aurora A (unknown origin) using FAM-labeled peptide as substrate preincubated for 10 mins followed by substrate addition measured after 60 mins
T1 sequence (O14965 whole entry): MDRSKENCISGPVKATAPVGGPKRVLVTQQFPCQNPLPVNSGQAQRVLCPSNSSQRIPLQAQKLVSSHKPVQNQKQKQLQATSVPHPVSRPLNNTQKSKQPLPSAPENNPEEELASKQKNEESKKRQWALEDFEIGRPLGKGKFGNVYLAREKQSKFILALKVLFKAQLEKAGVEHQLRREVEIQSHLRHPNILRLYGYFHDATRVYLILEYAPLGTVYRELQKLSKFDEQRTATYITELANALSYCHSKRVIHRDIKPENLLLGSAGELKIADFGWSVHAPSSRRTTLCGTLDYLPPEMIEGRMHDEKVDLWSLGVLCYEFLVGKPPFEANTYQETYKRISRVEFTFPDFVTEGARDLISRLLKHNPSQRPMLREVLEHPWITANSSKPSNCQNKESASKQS

[2] = system: U-937; assay: Antiproliferative activity against human U937 cells assessed as cell viability after 72 hrs by CCK8 assay; format: functional, cell-based
[3] = Antiproliferative activity against human MOLT4 cells assessed as cell viability after 72 hrs by CCK8 assay; format: functional, cell-based, MOLT-4
[4] = system: MCF7; assay: Antiproliferative activity against human MCF7 cells assessed as cell viability after 72 hrs by CCK8 assay; format: functional, cell-based
[5] = system: MDA-MB-231; assay: Antiproliferative activity against human MDA-MB-231 cells assessed as cell viability after 72 hrs by CCK8 assay; format: functional, cell-based
[6] = Antiproliferative activity against human SKBR3 cells assessed as cell viability after 72 hrs by CCK8 assay; format: functional, cell-based, SK-BR-3
[7] = system: A549; assay: Antiproliferative activity against human A549 cells assessed as cell viability after 72 hrs by CCK8 assay; format: functional, cell-based; settings: A549, 72 h
[8] = system: A-431; assay: Antiproliferative activity against human A431 cells assessed as cell viability after 72 hrs by CCK8 assay; format: functional, cell-based
[9] = system: DU-145; assay: Antiproliferative activity against human DU145 cells assessed as cell viability after 72 hrs by CCK8 assay; format: functional, cell-based
[10] = system: PC-3; assay: Antiproliferative activity against human PC3 cells assessed as cell viability after 72 hrs by CCK8 assay; format: functional, cell-based
[11] = system: HeLa; assay: Antiproliferative activity against human HeLa cells assessed as cell viability after 72 hrs by CCK8 assay; format: functional, cell-based
[12] = system: NCI-N87; assay: Antiproliferative activity against human NCI-N87 cells assessed as cell viability after 72 hrs by CCK8 assay; format: functional, cell-based
[13] = system: HCT-116; assay: Antiproliferative activity against human HCT116 cells assessed as cell viability after 72 hrs by CCK8 assay; format: functional, cell-based
[14] = Antiproliferative activity against human PANC1 cells assessed as cell viability after 72 hrs by CCK8 assay; format: functional, cell-based; settings: PANC-1, 72 h
[15] = system: HL-60; assay: Antiproliferative activity against human HL60 cells assessed as cell viability after 72 hrs by CCK8 assay; format: functional, cell-based
[16] = system: K562; assay: Antiproliferative activity against human K562 cells assessed as cell viability after 72 hrs by CCK8 assay; format: functional, cell-based
[17] = Cell cycle arrest in human CNE2 cells assessed as accumulation at G1 phase at 1 uM after 24 hrs by propidium iodide staining-based flow cytometric analysis (reference value: 52.5%); format: functional; settings: CNE-2
[18] = Cell cycle arrest in human CNE2 cells assessed as accumulation at S phase at 1 uM after 24 hrs by propidium iodide staining-based flow cytometric analysis (reference value: 14.7%); format: functional; settings: CNE-2
[19] = Cell cycle arrest in human CNE2 cells assessed as accumulation at G2/M phase at 1 uM after 24 hrs by propidium iodide staining-based flow cytometric analysis (reference value: 38.2%); format: functional; settings: CNE-2
[20] = Cell cycle arrest in human CNE2 cells assessed as accumulation at polyploid period at 1 uM after 24 hrs by propidium iodide staining-based flow cytometric analysis (reference value: […]); format: functional; settings: CNE-2
[21] = Homo sapiens, U-937, 72 h, read-out: IC50
[22] = Homo sapiens, MOLT-4, 72 h, read-out: IC50
[23] = Homo sapiens, MCF7, 72 h, read-out: IC50
[24] = Homo sapiens, MDA-MB-231, 72 h, read-out: IC50
[25] = Homo sapiens, SK-BR-3, 72 h, read-out: IC50
[26] = Homo sapiens, A-431, 72 h, read-out: IC50
[27] = Homo sapiens, DU-145, 72 h, read-out: IC50
[28] = Homo sapiens, PC-3, 72 h, read-out: IC50
[29] = Homo sapiens, HeLa, 72 h, read-out: IC50
[30] = Homo sapiens, NCI-N87, 72 h, read-out: IC50
[31] = Homo sapiens, HCT-116, 72 h, read-out: IC50
[32] = Homo sapiens, HL-60, 72 h, read-out: IC50
[33] = Homo sapiens, K562, 72 h, read-out: IC50

IC50 [1] [nM]	IC50 [2, 21] [nM]	IC50 [4, 23] [nM]	IC50 [5, 24] [nM]	IC50 [7] [nM]	IC50 [8, 26] [nM]	IC50 [9, 27] [nM]	IC50 [10, 28] [nM]	IC50 [11, 29] [nM]	IC50 [13, 31] [nM]	IC50 [15, 32] [nM]	IC50 [16, 33] [nM]	SMILES	IC50 [3, 22] [nM]	IC50 [6, 25] [nM]	IC50 [12, 30] [nM]	IC50 [14] [nM]	other results
112												Cc1cc(Nc2cc(N3CCN(C)CC3)nc(Nc3ccc(N4CCOCC4)cc3)n2)n[nH]1					
113												COC(=O)c1ccc(Nc2nc(Nc3cc(C)[nH]n3)cc(N3C[C@@H](C)O[C@@H](C)C3)n2)cc1					
101												CNC(=O)c1ccc(Nc2nc(Nc3cc(C)[nH]n3)cc(N3CCN(C)CC3)n2)cc1					
11	210	1070	204	1040	331	631	967	607	2600	1600	355	Cc1cc(Nc2cc(N3CCOCC3)nc(Nc3ccc([N+](=O)[O-])cc3)n2)n[nH]1	60.7	960	17500	580	
549												Cc1cc(Nc2cc(N3CCN(C)CC3)nc(Nc3ccc(N4CC(=O)N(C5CC5)CC4=O)cc3)n2)n[nH]1					
16	25.2	642	114	926	166	1340	962	1110	1820	90.9	138	Cc1cc(Nc2cc(N3CCN(C)CC3)nc(Nc3cccc([N+](=O)[O-])c3)n2)n[nH]1	26	2180	4320	457	
32				19700								Cc1cc(Nc2cc(N3CCN(C)CC3)nc(Nc3ccc(C(=O)O)cc3)n2)n[nH]1				39300	IC50 ([2]; u-937): Not Active; IC50 ([3]; molt-4): Not Active; IC50 ([4]; mcf7): Not Active; IC50 ([5]; mda-mb-231): Not Active; IC50 ([6]; sk-br-3): Not Active; IC50 ([8]; a-431): Not Active; IC50 ([9]; du-145): Not Active; IC50 ([10]; pc-3): Not Active; IC50 ([11]; hela): Not Active; IC50 ([12]; nci-n87): Not Active; IC50 ([13]; hct-116): Not Active; IC50 ([15]; hl-60): Not Active; IC50 ([16]; k562): Not Active
22	103	1320	162	1220	440	499	1360	985	1660	181	307	Cc1cc(Nc2cc(N3CCN(C)CC3)nc(Nc3ccc(C(=O)OC(C)C)cc3)n2)n[nH]1	94.1	4020	6320	1320	Activity [17]: 1.9%; Activity [18]: 1.7%; Activity [19]: 89%; Activity [20]: 7%
127												COC(=O)c1ccc(CNc2nc(Nc3cc(C)[nH]n3)cc(N3CCN(C)CC3)n2)cc1					Activity [17]: 55.4%; Activity [18]: 6.2%; Activity [19]: 35.3%; Activity [20]: 3%
118												CC(=O)Nc1ccc(Nc2nc(Nc3cc(C)[nH]n3)cc(N3CCN(C)CC3)n2)cc1					
147												Cc1cc(Nc2cc(N3CCN(C)CC3)nc(Nc3ccccc3Cl)n2)n[nH]1					
573												COC(=O)c1ccc(Nc2nc(Nc3cc(C)[nH]n3)cc(N3CCN(S(=O)(=O)c4ccc(C)cc4)CC3)n2)cc1					
200												COc1ccccc1Nc1nc(Nc2cc(C)[nH]n2)cc(N2CCN(C)CC2)n1					Activity [17]: 38.7%; Activity [18]: 8.2%; Activity [19]: 49%; Activity [20]: 3.7%
13	55.4	840	138	631	162	2240	1480	619	1370	83.4	192	Cc1cc(Nc2cc(N3CCN(C)CC3)nc(Nc3ccc(Cl)cc3)n2)n[nH]1	53.1	1610	7470	455	
228												COC(=O)c1ccc(Nc2nc(NCCN3CCCCC3)cc(Nc3cc(C)[nH]n3)n2)cc1					
34	233	1990	716	1730	1610	791	2060	1700	1240	604	556	COC(=O)c1ccc(Nc2nc(Nc3cc(C)[nH]n3)cc(N3CCN(S(C)(=O)=O)CC3)n2)cc1	215	5850	10900	1220	
72												COC(=O)c1ccc(Nc2nc(NCCN3CCOCC3)cc(Nc3cc(C)[nH]n3)n2)cc1					
7.7	55	813	124	1590	83.3	900	1380	322	1590	129	137	COC(=O)c1ccc(Nc2nc(Nc3cc(C)[nH]n3)cc(N3CCN(C)CC3)n2)cc1Cl	42.9	2160	3620	508	
	36	1300	127	3050	240	400	5810	2930	4320	38.2	79.1	Cc1cc(Nc2cc(N3CCN(C)CC3)nc(Sc3ccc(NC(=O)C4CC4)cc3)n2)n[nH]1 [TOZASERTIB]	21.2	9990	11600	4130	
5	100	2680	1210	16700	2760	926	4380	3060	12200	213	1430	Cc1cc(Nc2cc(N3CCN(C)CC3)nc(Nc3ccc(S(N)(=O)=O)cc3)n2)n[nH]1	648	15900	24000	8760	
135												COC(=O)c1ccc(Nc2nc(Nc3cc(C)[nH]n3)cc(N3CCNCC3)n2)cc1					
12	43.3	424	84.4	723	150	1200	1090	331	1630	69.8	137	Cc1cc(Nc2cc(N3CCN(C)CC3)nc(Nc3ccc([N+](=O)[O-])cc3)n2)n[nH]1	18.1	437	3880	442	
97												COC(=O)c1ccc(CNc2nc(Nc3cc(C)[nH]n3)cc(N3CCOCC3)n2)cc1					
8	9.03	372	75.7	785	140	1270	977	331	650	21.8	58.1	Cc1cc(Nc2cc(N3CCN(C)CC3)nc(Nc3ccc(C#N)cc3)n2)n[nH]1	13.6	883	5780	435	
